Results as given in patent publication US20040122026A1, “Imidazolidine compounds” (Millennium Pharmaceuticals, Inc., priority 2002, published 2004).

Target: T1, CXCR3 (Homo sapiens, UniProt P49682)
T1 construct: expressed in transfected cells; membrane preparation
T1 sequence (P49682 1-368): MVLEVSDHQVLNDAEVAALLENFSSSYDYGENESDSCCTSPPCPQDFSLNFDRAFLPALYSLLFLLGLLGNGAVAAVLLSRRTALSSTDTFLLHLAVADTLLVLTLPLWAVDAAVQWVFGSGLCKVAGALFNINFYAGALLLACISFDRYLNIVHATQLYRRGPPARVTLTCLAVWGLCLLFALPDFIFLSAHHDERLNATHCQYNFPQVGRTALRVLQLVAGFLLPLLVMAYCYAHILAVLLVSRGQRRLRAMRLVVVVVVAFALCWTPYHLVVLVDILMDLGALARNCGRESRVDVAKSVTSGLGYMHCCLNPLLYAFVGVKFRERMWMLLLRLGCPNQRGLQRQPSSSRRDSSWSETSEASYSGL
Assay: CXCR3/IP-10 radioligand binding (125I-IP-10 competition on CXCR3.L1/2 cell membranes)
Settings: test compound 10 μmol/L; 125I-labeled IP-10 binding to CXCR3.L1/2 transfectant cell membranes; results Table 6
From the text: The activity of the compounds of the present invention can be assessed using a suitable assay, such as a receptor binding assay, a chemotaxis assay, an extracellular acidification assay or a calcium flux assay (see, for example, Hesselgesser et al., J. Biol. Chem., 273(25): 15687-15692 (1998) and WO 98/02151). For example, as described herein, small organic molecule antagonists of CXCR3/IP-10 binding have been identified utilizing cells engineered to express recombinant human CXCR3 (CXCR3.L1/2) and which bind ^125I-IP-10 and chemotax in response to IP-10, Mig, or I-TAC. Specifically, a high through-put receptor binding assay, which monitors ^125I-IP-10 biding to CXCR3.L1/2 cell membranes, was used to identify small molecule antagonists. Binding assays can be performed using other ligands of CXCR3, such as, Mig, and/or I-TAC.
CXCR3/IP-10 Radioligand Binding:
CXCR3.L1/2 Membrane Preparation:
CXCR3.L1/2 cells were pelleted by centrifugation and stored at −80° C. The cells were lysed by thawing and resuspending at about 1.5×10^7 cells/mL in a hypotonic buffer (5 mmol/L HEPES (pH 7.2), 2 mmol/L EDTA, 10 μg/mL each leupeptin, aprotinin, and chymostatin, and 100 μg/mL PMSF (all from Sigma, St. Louis)). Nuclei and cellular debris are removed by centrifugation ([…], at 4° C.) for 10 min. The supernatant was transferred to chilled centrifuge tubes (Nalge, Rochester, N.Y.) and the membrane fraction was recovered by centrifugation (25,000 g at 4° C.) for 45 min. The membrane pellet was resuspended in freezing buffer (10 mmol/L HEPES (pH 7.2), 300 mmol/L Sucrose, 5 μg/mL each of leupeptin, aprotinin, and chymostatin, and 10 μg/mL PMSF). The total protein concentration was determined using a coomassie blue staining protein concentration assay kit (BioRad). The membrane preparations are aliquoted and stored at −80° C. until time of use.
CXCR3/IP-10 binding was performed in 96-well polypropylene plates (Costar) in a final volume of 0.1 mL of HBB buffer (50 mmol/L Hepes pH 7.4, 1 mmol/L CaCl2, 5 mmol/L MgCl2, 0.02% sodium azide, 0.5% BSA (bovine serum albumin)), containing 1 to 5 μg CXCR3.L1/2 transfectant cell membrane protein and 0.05 to 0.2 nmol/L of ^125I-labeled IP-10 (NEN, Boston, Mass.). Competition binding experiments were performed by including variable concentrations of unlabeled IP-10 or test compound. Nonspecific binding was determined following the addition of a 250 nmol/L unlabelled IP-10. Samples were incubated for 60 min at room temperature, and bound and free tracer (^125I-labeled IP-10) were separated by filtration through 96-well GF/B filterplates presoaked in 0.3% polyethyleneimine. The filters were washed in HBB further supplemented with 0.5 mol/L NaCl, dried, and the amount of bound radioactivity determined by liquid scintillation counting. The competition is presented as the percent specific binding as calculated by 100×[(S−B)/(T−B)], where S is the radioactivity bound for each sample, B is background binding, and T is total bound in the absence of competitors. Duplicates were used throughout the experiments.

inhibition at 10 µM [%] | Compound | % inhibition at 10 μmol/L [%]
93 | Cc1cc(C)cc(CN2CCN(CCC(=O)N(c3cccc(CN(CCO)CCO)c3)C(C)C)C2=C(C#N)C#N)c1 [Compound 26, N-Isopropyl-N-[3-(bis(2-hydroxyethyl)aminomethyl)phenyl]-3-[3-(3,5-dimethylbenzyl)-2-dicyanomethylideneimidazolidin-1-yl]propionamide] | 
92 | Cc1cc(C)cc(CN2CCN(CCC(=O)N(c3cccc(CN(C)CCO)c3)C(C)C)C2=C(C#N)C#N)c1 [Compound 27, N-Isopropyl-N-[3-[(N-(2-hydroxyethyl)-N-methylamino)methyl]phenyl]-3-[3-(3,5-dimethylbenzyl)-2-dicyanomethylideneimidazolidin-1-yl]propionamide] | 

Second part, the compound before the results:

Compound | inhibition at 10 µM [%] | % inhibition at 10 μmol/L [%]
CCN(CC)Cc1cccc(N(C(=O)CCN2CCN(Cc3cc(C)cc(C)c3)C2=C(C#N)C#N)C(C)C)c1 [Compound 24, N-Isopropyl-N-[3-(diethylaminomethyl)phenyl]-3-[3-(3,5-dimethylbenzyl)-2-dicyanomethylideneimidazolidin-1-yl]propionamide] | 90 | 
CCOC(=O)C1CCN(Cc2cccc(N(C(=O)CCN3CCN(Cc4cc(C)cc(C)c4)C3=C(C#N)C#N)C(C)C)c2)CC1 [Compound 25, N-Isopropyl-N-[3-(4-ethoxycarbonylpiperidinomethyl)phenyl]-3-[3-(3,5-dimethylbenzyl)-2-dicyanomethylideneimidazolidin-1-yl]propionamide] | 107 | 
N-Isopropyl-N-[3-(piperidinomethyl)phenyl]-3-[3-(1-naphthalenylmethyl)-2-dicyanomethylidene imidazolidin-1-yl]propionamide [Compound 16] |  | 95
